Source: patent publication US20230058961A1, “SUBSTITUTED HETEROCYCLICS WITH THERAPEUTIC ACTIVITY IN HIV” (New York Blood Center, Inc., priority 2019, published 2023)

Experiments:
[1] = in vitro; conditions: human
Experimental: (§1) The anti-HIV-1 activity was assessed in a single-cycle assay by infecting TZM-bl indicator cells with the pseudovirus HIV-1 HXB2 according to established procedures (F. Curreli, Y. D. Kwon, D. S. Belov, R. R. Ramesh, A. V. Kurkin, A. Altieri, P. D. Kwong, A. K. Debnath, J Med Chem 2017, 60, 3124-3153; which is incorporated herein by reference for all that it teaches about the conduct and interpretation of the assay).
(§2) The cytotoxicity of the small polycyclic molecules in TZM-bl cells was determined by using the colorimetric method CellTiter 96® AQueous One Solution Cell Proliferation Assay (MTS) (Promega) following the manufacturer's instructions. Briefly, TZM-bl cells were platted in a 96-well tissue culture plate at 1×10^4/well and cultured at 37° C. Following overnight incubation, the cells were incubated with 100 μl of the compounds at graded concentrations and cultured for 3 days. The MTS reagent was added to the cells and incubated for 4 h at 37° C. The absorbance was recorded at 490 nm.

[2] = test system: TZM-bl cells; conditions: human, 3 days
Experimental: as §1, §2

[3] = test system: pseudovirus HIV-1 HXB2; experiment: organism not typed; format: cell-based; conditions: anti-HIV-1 activity, single-cycle assay, TZM-bl cells, pseudovirus HIV-1 HXB2, read-out: IC50
[4] = test system: panel of HIV-1 Env Pseudoviruses (49 clones of clinical isolates, subtypes A, B, C, D, Arec); format: cell-based; conditions: 49 HIV-1 clones of clinical isolates

With `NCC(NC(=O)c1ccc(-c2ccc(Cl)cn2)[nH]1)c1ncc(CO)s1` (stereo not drawn) [Compound 1, N-(2-Amino-1-(5-(hydroxymethyl)thiazol-2-yl)ethyl)-5-(5-chloropyridin-2-yl)-1H-pyrrole-2-carboxamide] the CC50 at 3 days ([1]; CC50, cytotoxicity, TZM-bl cells, MTS, 3 days) was > 100 µM, the CC50 [2] was 144 ± 7.5 µM and the IC50 [3] was 0.85 ± 0.1 µM.

For `Cc1cc(-c2ccc(C(F)(F)F)cn2)[nH]c1C(=O)NC(CN)c1ncc(CO)s1` (stereo not drawn) [Compound 8, N-(2-amino-1-(5-(hydroxymethyl)thiazol-2-yl)ethyl)-3-methyl-5-(5-(trifluoromethyl)pyridin-2-yl)-1H-pyrrole-2-carboxamide], the “anti-HIV-1 activity against panel of HIV-1 Env pseudotypes (in words)” value [4] was “sub-micromolar” and the CC50 [2] was 109 ± 2 µM.

For `CC(C)(N)C(NC(=O)c1ccc(-c2ccc(C(F)(F)F)cn2)[nH]1)c1ncc(CO)s1` (stereo not drawn) [Compound 9, N-(2-Amino-1-(5-(hydroxymethyl)thiazol-2-yl)-2-methylpropyl)-5-(5-(trifluoromethyl)pyridin-2-yl)-1H-pyrrole-2-carboxamide], the CC50 at 3 days ([1]; CC50) was < 50 µM and the CC50 [2] was 74 ± 3.6 µM.

For `NCC(NC(=O)c1ccc(-c2ccc(C(F)(F)F)cn2)[nH]1)c1nc(CCCO)cs1` (stereo not drawn) [Compound 27, N-(2-Amino-1-(4-(3-hydroxypropyl)thiazol-2-yl)ethyl)-5-(5-(trifluoromethyl)pyridin-2-yl)-1H-pyrrole-2-carboxamide], the CC50 at 3 days ([1]; CC50) was > 100 µM, the CC50 [2] was > 114 µM and the IC50 [3] was 2.3 ± 0.3 µM.

In the case of `NCC(NC(=O)c1ccc(-c2ccc(C(F)(F)F)cn2)[nH]1)c1nc(C(O)CO)cs1` (stereo not drawn) [Compound 30, N-(2-Amino-1-(4-(1,2-dihydroxyethyl)thiazol-2-yl)ethyl)-5-(5-(trifluoromethyl)pyridin-2-yl)-1H-pyrrole-2-carboxamide], the CC50 [2] is reported as > 113 µM and the IC50 [3] is reported as 3.8 ± 0.2 µM.

For `Cc1cc(-c2ccc(C(F)(F)F)cn2)[nH]c1C(=O)NC(CN)c1nc(CO)cs1` (stereo not drawn) [Compound 33, N-(2-Amino-1-(4-(hydroxymethyl)thiazol-2-yl)ethyl)-3-methyl-5-(5-(trifluoromethyl)pyridin-2-yl)-1H-pyrrole-2-carboxamide], the CC50 at 3 days ([1]; CC50) was 85 ± 3 µM and the “anti-HIV-1 activity against panel of HIV-1 Env pseudotypes (in words)” value [4] was “sub-micromolar”.

For `NCC(NC(=O)c1ccc(-c2ccc(C(F)(F)F)cn2)[nH]1)c1nc(CO)c(CO)s1` (stereo not drawn) [Compound 36, N-(2-Amino-1-(4,5-bis(hydroxymethyl)thiazol-2-yl)ethyl)-5-(5-(trifluoromethyl)pyridin-2-yl)-1H-pyrrole-2-carboxamide], the CC50 [2] was > 113 µM and the IC50 [3] was 13 µM.

Compound `NCC(NC(=O)c1ccc(-c2ccc(C(F)(F)F)cn2)[nH]1)c1nccs1` (stereo not drawn) [Compound 38, N-(2-Amino-1-(thiazol-2-yl)ethyl)-5-(5-(trifluoromethyl)pyridin-2-yl)-1H-pyrrole-2-carboxamide] has a CC50 [2] of 93.6 ± 1.5 µM and an IC50 [3] of 1.2 ± 0.03 µM.

In the case of `NCC(NC(=O)c1ccc(-c2ccc(Cl)nc2)[nH]1)c1nc(CO)cs1` (stereo not drawn) [Compound 40, N-(2-Amino-1-(4-(hydroxymethyl)thiazol-2-yl)ethyl)-5-(6-chloropyridin-3-yl)-1H-pyrrole-2-carboxamide], the CC50 [2] is reported as > 132 µM and the IC50 [3] is reported as > 11 µM.

With `NCC(NC(=O)c1ccc(-c2ccc(C(F)(F)F)nc2)[nH]1)c1nc(CO)cs1` (stereo not drawn) [Compound 42, N-(2-Amino-1-(4-(hydroxymethyl)thiazol-2-yl)ethyl)-5-(6-(trifluoromethyl)pyridin-3-yl)-1H-pyrrole-2-carboxamide] the CC50 [2] was > 122 µM and the IC50 [3] was 11.9 ± 1.9 µM.

With `NCC(NC(=O)c1ccc(-c2ccc(C(F)(F)F)nn2)[nH]1)c1nc(CO)cs1` (stereo not drawn) [Compound 44, N-(2-Amino-1-(4-(hydroxymethyl)thiazol-2-yl)ethyl)-5-(6-(trifluoromethyl)pyridazin-3-yl)-1H-pyrrole-2-carboxamide] the CC50 [2] was > 73 µM and the IC50 [3] was > 12 µM.

In the case of `NCC(NC(=O)c1ccc(-c2ncc(Cl)cn2)[nH]1)c1nc(CO)cs1` (stereo not drawn) [Compound 46, N-(2-Amino-1-(4-(hydroxymethyl)thiazol-2-yl)ethyl)-5-(5-chloropyrimidin-2-yl)-1H-pyrrole-2-carboxamide], the CC50 [2] is reported as > 66 µM and the IC50 [3] is reported as > 15.8 µM.

With `COc1cc(-c2ccc(C(=O)NC(CN)c3nc(CO)cs3)[nH]2)ccn1` (stereo not drawn) [Compound 48, N-(2-Amino-1-(4-(hydroxymethyl)thiazol-2-yl)ethyl)-5-(2-methoxypyridin-4-yl)-1H-pyrrole-2-carboxamide] the CC50 [2] was > 133 µM and the IC50 [3] was > 11 µM.

In the case of `NCC(NC(=O)c1ccc(-c2ccc(C(F)(F)F)cn2)[nH]1)c1cnc(CO)s1` (stereo not drawn) [Compound 58, N-(2-Amino-1-(2-(hydroxymethyl)thiazol-5-yl)ethyl)-5-(5-(trifluoromethyl)pyridin-2-yl)-1H-pyrrole-2-carboxamide], the CC50 [2] is reported as > 122 µM and the IC50 [3] is reported as 2.1 ± 0.2 µM.

For `NCC(NC(=O)c1ccc(-c2ccc(Cl)cn2)[nH]1)c1cnc(CO)s1` (stereo not drawn) [Compound 60, N-(2-Amino-1-(2-(hydroxymethyl)thiazol-5-yl)ethyl)-5-(5-chloropyridin-2-yl)-1H-pyrrole-2-carboxamide], the CC50 [2] was > 106 µM and the IC50 [3] was 3.6 ± 0.4 µM.

`Cc1cc(-c2ccc(C(F)(F)F)cn2)[nH]c1C(=O)NC(CN)c1cnc(CO)s1` (stereo not drawn) [Compound 62, N-(2-Amino-1-(2-(hydroxymethyl)thiazol-5-yl)ethyl)-3-methyl-5-(5-(trifluoromethyl)pyridin-2-yl)-1H-pyrrole-2-carboxamide] showed a CC50 [2] of 63.8 ± 2.1 µM and an IC50 [3] of 1.9 ± 0.25 µM.

With `Cc1cc(-c2ccc(C(F)(F)F)cn2)[nH]c1C(=O)NC(CN)c1csc(CO)n1` (stereo not drawn) [Compound 64, N-(2-Amino-1-(2-(hydroxymethyl)thiazol-4-yl)ethyl)-3-methyl-5-(5-(trifluoromethyl)pyridin-2-yl)-1H-pyrrole-2-carboxamide] the CC50 [2] was 47.8 ± 5.9 µM and the IC50 [3] was 1.3 ± 0.2 µM.

With `NCC(NC(=O)c1ccc(-c2ccc(C(F)(F)F)cn2)[nH]1)c1csc(CO)n1` (stereo not drawn) [Compound 66, N-(2-Amino-1-(2-(hydroxymethyl)thiazol-4-yl)ethyl)-5-(5-(trifluoromethyl)pyridin-2-yl)-1H-pyrrole-2-carboxamide] the CC50 [2] was 85.1 ± 2.5 µM and the IC50 [3] was 1.7 ± 0.2 µM.

In the case of `NCC(NC(=O)c1ccc(-c2ccc(Cl)cn2)[nH]1)c1csc(CO)n1` (stereo not drawn) [Compound 68, N-(2-Amino-1-(2-(hydroxymethyl)thiazol-4-yl)ethyl)-5-(5-chloropyridin-2-yl)-1H-pyrrole-2-carboxamide], the CC50 [2] is reported as > 106 µM and the IC50 ([3]; Human immunodeficiency virus 1, HXB2, TZM-bl) is reported as 8.2 ± 2.1 µM.

In the case of `NCC(NC(=O)c1ccc(-c2ccc(C(F)(F)F)cn2)[nH]1)c1csc(C(=O)NCCO)n1` (stereo not drawn) [Compound 70, 4-(2-Amino-1-(5-(5-(trifluoromethyl)pyridin-2-yl)-1H-pyrrole-2-carboxamido)ethyl)-N-(2-hydroxyethyl)thiazole-2-carboxamide], the CC50 [2] is reported as > 107 µM and the IC50 [3] is reported as > 21.3 µM.
